According to patent US20220411381A1, “PYRIMIDINEDIONE DERIVATIVES” (Bayer Aktiengesellschaft, priority 2019, published 2022):
pIC50: −log10 of the molar value.

Each molecule was assayed against T1, recombinant human BCAT2 enzyme (Homo sapiens, UniProt O15382) (assay: In vitro assay 1b: BCAT2 biochemical assay (coupled LeuDH/NADH fluorescence readout)). Settings: recombinant human BCAT2 […], 32° C., 100 μM leucine, 50 μM α-ketoglutarate, NADH fluorescence over 90 min; read-out: BCAT2 IC50.
T1 construct: purchased ATGen (South Korea) ATGP1523
T1 sequence (O15382 28-392): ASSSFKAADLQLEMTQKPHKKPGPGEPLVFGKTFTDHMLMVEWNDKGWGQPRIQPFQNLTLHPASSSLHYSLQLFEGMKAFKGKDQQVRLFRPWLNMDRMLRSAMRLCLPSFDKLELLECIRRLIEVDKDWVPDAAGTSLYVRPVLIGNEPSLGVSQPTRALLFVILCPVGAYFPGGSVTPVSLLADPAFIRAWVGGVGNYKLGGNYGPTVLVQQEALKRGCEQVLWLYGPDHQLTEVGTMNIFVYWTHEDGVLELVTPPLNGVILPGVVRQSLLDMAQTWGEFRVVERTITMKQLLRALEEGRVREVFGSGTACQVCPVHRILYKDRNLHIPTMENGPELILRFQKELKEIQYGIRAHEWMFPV
Method: (§1) In Vitro Assay 1a and 1b: BCAT1 and BCAT2 Biochemical Assay
(§2) BOAT (Branched chain amino acid transferase) catalyzes transamination of the branched chain amino acid leucine to α-ketoisocaproate (KIC). The BOAT enzymatic reaction was measured in a coupled readout with leucine dehydrogenase (LeuDH) which catalyzes the Nicotinamide adenine dinucleotide (NADH) dependent reduction of KIC to leucine. NADH consumption is measured by fluorescent readout.
(§3) The biochemical reactions were performed at 32° C. in 384-well plates using a reaction volume of 51 μl and the following assay buffer conditions: 50 mM HEPES (2-[4-(2-hydroxyethyl)piperazin-1-yl]ethanesulfonic acid) pH 8.0, 50 mM aqueous solution of ammonium sulfate, 1 mM ethylenediaminetetraacetic acid, 2 mM dithiothreitol, 0.01% bovine serum albumine, 0.005% Brij 35 detergent, 0.5 μM PLP (pyridoxalphosphate), 10 μM NADH, and 50 μM α-ketoglutarate), and 100 μM leucine. […] Test compounds were used in a concentration range between 0.005 and 30 μM. The final DMSO concentration was 2%.
(§4) The reaction was initiated by addition of substrates (Leucine, α-KG, NADH).

pIC50 | Molecule
5.70 | Cc1ccccc1Oc1cc(-n2c(=O)cc(C(F)(F)F)[nH]c2=O)c(Cl)cc1C#N (single isomer, unassigned) [Example 13, 5-Chloro-4-[2,6-dioxo-4-(trifluoromethyl)-3,6-dihydropyrimidin-1(2H)-yl]-2-(2-methylphenoxy)benzonitrile (atrop 2)]
5.89 | COc1cc(C#N)c(Oc2ccccc2C)cc1-n1c(=O)cc(C(F)(F)Cl)[nH]c1=O (racemic) [Example 25, 4-{4-[Chloro(difluoro)methyl]-2,6-dioxo-3,6-dihydropyrimidin-1(2H)-yl}-5-methoxy-2-(2-methylphenoxy)benzonitrile (rac)]
5.36 | COc1cc(C#N)c(Oc2ccccc2C)cc1-n1c(=O)cc(C(F)(F)C(F)(F)F)[nH]c1=O (racemic) [Example 51, 4-[2,6-Dioxo-4-(pentafluoroethyl)-3,6-dihydropyrimidin-1(2H)-yl]-5-methoxy-2-(2-methylphenoxy)benzonitrile (rac)]
5.70 | Cc1ccccc1Oc1cc(-n2c(=O)cc(C(F)(F)F)[nH]c2=O)c(Cl)cc1C#N (racemic) [Example 11, 5-Chloro-4-[2,6-dioxo-4-(trifluoromethyl)-3,6-dihydropyrimidin-1(2H)-yl]-2-(2-methylphenoxy)benzonitrile (rac)]

These molecules were tested against T2, recombinant human BCAT1 enzyme (Homo sapiens, UniProt P54687) (assay: In vitro assay 1a: BCAT1 biochemical assay (coupled LeuDH/NADH fluorescence readout)). Settings: read-out: BCAT1 IC50.
T2 construct: purchased ATGen (South Korea) ATGP1479
T2 sequence (P54687 1-386): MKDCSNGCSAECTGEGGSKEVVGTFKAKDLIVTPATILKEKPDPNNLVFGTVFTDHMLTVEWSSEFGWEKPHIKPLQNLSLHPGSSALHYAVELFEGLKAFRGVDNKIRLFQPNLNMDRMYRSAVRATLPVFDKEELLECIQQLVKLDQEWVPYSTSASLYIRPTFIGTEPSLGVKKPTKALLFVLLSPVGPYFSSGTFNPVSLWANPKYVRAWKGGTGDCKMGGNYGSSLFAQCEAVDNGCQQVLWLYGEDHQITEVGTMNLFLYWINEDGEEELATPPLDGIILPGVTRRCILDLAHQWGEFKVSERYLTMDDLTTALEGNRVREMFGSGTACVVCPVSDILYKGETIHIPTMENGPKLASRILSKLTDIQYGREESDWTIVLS
Method: as §1, §2, §3, §4

Molecule | pIC50
4-[4-(Methanesulfonyl)-2,6-dioxo-3,6-dihydropyrimidin-1(2H)-yl]-5-methoxy-2-(2-methylphenoxy)benzonitrile (atrop 2) [Example 81] | 5.60

Same assay, conditions: recombinant human BCAT1 […], 32° C., 100 μM leucine, 50 μM α-ketoglutarate, NADH fluorescence over 90 min; read-out: BCAT1 IC50

pIC50 | Molecule
5.29 | Cc1cccc(Oc2cc(-n3c(=O)cc(C(F)(F)F)[nH]c3=O)c(F)cc2C#N)c1C [Example 67, 2-(2,3-Dimethylphenoxy)-4-[2,6-dioxo-4-(trifluoromethyl)-3,6-dihydropyrimidin-1(2H)-yl]-5-fluorobenzonitrile]
6.70 | COc1cc(C#N)c(Oc2ccccc2C)cc1-n1c(=O)cc(C(F)(F)Cl)[nH]c1=O (racemic) [Example 25, 4-{4-[Chloro(difluoro)methyl]-2,6-dioxo-3,6-dihydropyrimidin-1(2H)-yl}-5-methoxy-2-(2-methylphenoxy)benzonitrile (rac)]
6.82 | COc1cc(C#N)c(Oc2ccccc2C)cc1-n1c(=O)cc(C(F)F)[nH]c1=O (racemic) [Example 22, 4-[4-(Difluoromethyl)-2,6-dioxo-3,6-dihydropyrimidin-1(2H)-yl]-5-methoxy-2-(2-methylphenoxy)benzonitrile (rac)]
4.72 | COc1cc(C#N)c(Oc2ccccc2Cl)cc1-n1c(=O)cc(C(F)(F)F)[nH]c1=O (single isomer, unassigned) [Example 17, 2-(2-Chlorophenoxy)-4-[2,6-dioxo-4-(trifluoromethyl)-3,6-dihydropyrimidin-1(2H)-yl]-5-methoxybenzonitrile (atrop 2)]
5.26 | COc1cc(C#N)c(Oc2ccccc2C)cc1-n1c(=O)cc(-c2ccccc2)[nH]c1=O (single isomer, unassigned) [Example 43, 4-(2,6-Dioxo-4-phenyl-3,6-dihydropyrimidin-1(2H)-yl)-5-methoxy-2-(2-methylphenoxy)benzonitrile (atrop 1)]

Continued, molecule first:

Molecule | pIC50
Cc1cc(Cl)cc(C)c1Oc1cc(-n2c(=O)cc(C(F)(F)F)[nH]c2=O)c(F)cc1C#N [Example 61, 2-(4-Chloro-2,6-dimethylphenoxy)-4-[2,6-dioxo-4-(trifluoromethyl)-3,6-dihydropyrimidin-1(2H)-yl]-5-fluorobenzonitrile] | 5.60
CC(=O)c1cc(C)cc(C)c1Oc1cc(-n2c(=O)cc(C(F)(F)F)[nH]c2=O)c(F)cc1C#N [Example 58, 2-(2-Acetyl-4,6-dimethylphenoxy)-4-[2,6-dioxo-4-(trifluoromethyl)-3,6-dihydropyrimidin-1(2H)-yl]-5-fluorobenzonitrile] | 5.74
Cc1ccc(C)c(Oc2cc(-n3c(=O)cc(C(F)(F)F)[nH]c3=O)c(F)cc2C#N)c1C [Example 60, 4-[2,6-Dioxo-4-(trifluoromethyl)-3,6-dihydropyrimidin-1(2H)-yl]-5-fluoro-2-(2,3,6-trimethylphenoxy)benzonitrile] | 5.12
Cc1cc(C)c(Oc2cc(-n3c(=O)cc(C(F)(F)F)[nH]c3=O)c(F)cc2C#N)c(C)c1 [Example 62, 4-[2,6-Dioxo-4-(trifluoromethyl)-3,6-dihydropyrimidin-1 (2H)-yl]-5-fluoro-2-(2,4,6-trimethylphenoxy)benzonitrile] | 5.60
